Columns and labels:
arrowleaf sida = experiment: Test E postemergence; format: in vivo, Sida rhombifolia; settings: Sida rhombifolia, post-emergence, read-out: Plant response rating, Arrowleaf Sida; for pest or weed control at 31 g/ha: 31 g ai/ha; for pest or weed control at 62 g/ha: 62 g ai/ha; for pest or weed control at 125 g/ha: 125 g ai/ha; for pest or weed control at 16 g/ha: postemergence, 16 g ai/ha, scale 0 to 100, 0 no effect, 100 complete control
Source text: (§1) Seeds of plant species selected from corn (Zea mays), soybean (Glycine max), velvetleaf (Abutilon theophrasti), lambsquarters (Chenopodium album), wild poinsettia (Euphorbia heterophylla), palmer pigweed (Amaranthus palmeri), waterhemp (common waterhemp, Amaranthus rudis), surinam grass (Brachiaria decumbens), large (Lg) crabgrass (Digitaria sanguinalis), Brazilian crabgrass (Digitaria horizontalis), fall panicum (Panicum dichotomiflorum), giant foxtail (Setaria faberii), green foxtail (Setaria viridis), goosegrass (Eleusine indica), johnsongrass (Sorghum halepense), ragweed (common ragweed, Ambrosia elatior), barnyardgrass (Echinochloa crus-galli), sandbur (southern sandbur, Cenchrus echinatus), arrowleaf sida (Sida rhombifolia), Italian ryegrass (Lolium multiflorum), dayflower (Virginia (VA) dayflower, Commelina virginica), field bindweed (Convolvulus arvensis), morningglory (Ipomoea coccinea), nightshade (eastern black nightshade, Solanum ptycanthum), kochia (Kochia scoparia), yellow nutsedge (Cyperus esculentus), cocklebur (common cocklebur, Xanthium strumarium), smartweed (ladysthumb smartweed, and hairy beggarticks (Bidens pilosa), were planted into a silt loam soil and treated preemergence with test chemicals formulated in a non-phytotoxic solvent mixture which included a surfactant.
(§2) At the same time, plants from these crop and weed species and also horseweed (Canada horseweed, Conyza canadensis), waterhemp_RES1, (ALS & Triazine resistant common waterhemp, Amaranthus rudis), and waterhemp_RES2, (ALS & HPPD resistant common waterhemp, Amaranthus rudis) were planted in pots containing Redi-Earth® planting medium (Scotts Company, 14111 Scottslawn Road, Marysville, Ohio 43041) comprising spaghnum peat moss, vermiculite, wetting agent and starter nutrients were treated with postemergence applications of test chemicals formulated in the same manner. Plants ranged in height from 2 to 18 cm for postemergence treatments (1- to 4-leaf stage). Treated plants and controls were maintained in a greenhouse for 14 to 21 days, after which time all species were compared to controls and visually evaluated. Plant response ratings, summarized in Table E, are based on a scale of 0 to 100 where 0 is no effect and 100 is complete control. A dash (-) response means no test result.

[1] = test system: waterhemp_RES2 (ALS & HPPD resistant common waterhemp); experiment: Test E postemergence; format: in vivo, Amaranthus rudis; settings: Amaranthus tuberculatus, post-emergence, read-out: Plant response rating, Waterhemp_RES2; for pest or weed control at 31 g/ha: 31 g ai/ha; for pest or weed control at 62 g/ha: 62 g ai/ha; for pest or weed control at 125 g/ha: 125 g ai/ha; for pest or weed control at 16 g/ha: postemergence, 16 g ai/ha, scale 0 to 100, 0 no effect, 100 complete control
Source text: as §1, §2

waterhemp = experiment: Test E postemergence; format: in vivo, Amaranthus rudis; settings: Amaranthus tuberculatus, post-emergence, read-out: Plant response rating, Waterhemp; for pest or weed control at 31 g/ha: 31 g ai/ha; for pest or weed control at 62 g/ha: 62 g ai/ha; for pest or weed control at 125 g/ha: 125 g ai/ha; for pest or weed control at 16 g/ha: postemergence, 16 g ai/ha, scale 0 to 100, 0 no effect, 100 complete control
Source text: as §1, §2

surinam grass = experiment: Test E preemergence; format: in vivo, Brachiaria decumbens; settings: for Surinam Grass plant response rating: scale 0 to 100 (0 no effect, 100 complete control)
Source text: as §1, §2

palmer pigweed = experiment: Test E preemergence; format: in vivo, Amaranthus palmeri; settings: for Pigweed, Palmer plant response rating: scale 0 to 100 (0 no effect, 100 complete control)
Source text: as §1, §2

lambsquarters = experiment: Test C preemergence; format: in vivo, Chenopodium album
Summary of the method: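 Sown in loam/sand → sprayed pre-emergence; or grown to 1–4 leaves in peat mix → sprayed post-emergence. Same solvent/surfactant formulation both ways. Greenhouse 13–15 d. Score 0–100 visual.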

Italian ryegrass = experiment: Test A postemergence; format: in vivo, Lolium multiflorum; settings: 0 to 100 scale where 0 is no effect and 100 is complete control
Summary of the method: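 Compounds in non-phytotoxic solvent with surfactant applied as soil spray preemergence, or postemergence to plants 2-10 cm at one- to two-leaf stage, in loam/sand. After approximately 10 days in greenhouse, injury rated visually versus untreated controls, 0 (no effect) to 100 (complete control).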

[2] = Postemergence, 250 g ai/ha, scale 0 to 100
[3] = 125 g ai/ha, scale 0 to 100, 0 no effect, 100 complete control
[4] = 250 g ai/ha, scale 0 to 100, 0 no effect, 100 complete control
[5] = 16 g ai/ha, preemergence, scale 0 to 100 (0 no effect, 100 complete control)
[6] = 62 g ai/ha, preemergence, scale 0 (no effect) to 100 (complete control)
[7] = 125 g ai/ha, preemergence, scale 0 (no effect) to 100 (complete control)
[8] = 8 g ai/ha, scale 0 to 100, 0 is no effect, 100 is complete control
[9] = Preemergence, 62 g ai/ha, scale 0 to 100, 0 no effect, 100 complete control

Compound: Clc1cnn(-c2ccccc2Oc2ncc(Br)cn2)c1 [Compound 5, 5-bromo-2-[2-(4-chloro-1H-pyrazol-1-yl)phenoxy]pyrimidine]
- pest or weed control at 31 g/ha (arrowleaf sida; Postemergence, scale 0 to 100): 60%
- pest or weed control at 62 g/ha (arrowleaf sida; Postemergence, scale 0 to 100): 70%
- pest or weed control at 125 g/ha (arrowleaf sida; Postemergence, scale 0 to 100): 80%
- pest or weed control at 250 g/ha (arrowleaf sida; [2]): 85%
- pest or weed control at 16 g/ha (arrowleaf sida): 60%
- pest or weed control at 31 g/ha ([1]; Postemergence, scale 0 to 100): 70%
- pest or weed control at 62 g/ha ([1]; Postemergence, scale 0 to 100): 80%
- pest or weed control at 125 g/ha ([1]; Postemergence, scale 0 to 100): 90%
- pest or weed control at 250 g/ha [1, 2]: 95%
- pest or weed control at 16 g/ha [1]: 60%
- pest or weed control at 31 g/ha (waterhemp; Postemergence, scale 0 to 100): 80%
- pest or weed control at 62 g/ha (waterhemp; Postemergence, scale 0 to 100): 90%
- pest or weed control at 125 g/ha (waterhemp; Postemergence, scale 0 to 100): 95%
- pest or weed control at 250 g/ha (waterhemp; [2]): 98%
- pest or weed control at 16 g/ha (waterhemp): 70%

Compound: N#Cc1cccc(Oc2ncc(Cl)cn2)c1-n1cc(Br)cn1 [Compound 52, 2-(4-bromo-1H-pyrazol-1-yl)-3-[(5-chloro-2-pyrimidinyl)oxy]benzonitrile]
- Surinam Grass plant response rating (surinam grass; 16 g ai/ha): 0
- Surinam Grass plant response rating (surinam grass; 31 g ai/ha): 0
- Surinam Grass plant response rating (surinam grass; 62 g ai/ha): 0
- Plant response rating, Surinam Grass (surinam grass; [3]): 10
- Plant response rating, Surinam Grass (surinam grass; [4]): 10
- Pigweed, Palmer plant response rating (palmer pigweed; 16 g ai/ha): 25
- Pigweed, Palmer plant response rating (palmer pigweed; 31 g ai/ha): 100
- Pigweed, Palmer plant response rating (palmer pigweed; 62 g ai/ha): 100
- Plant response rating, Pigweed, Palmer (palmer pigweed; [3]): 100
- Plant response rating, Pigweed, Palmer (palmer pigweed; [4]): 100
- pest or weed control at 62 g/ha (lambsquarters; Chenopodium album, pre-emergence, 62 g ai/ha, preemergence, scale 0 (no effect) to 100 (complete control), read-out: Lambsquarters plant response rating): 100%
- pest or weed control at 125 g/ha (lambsquarters; Chenopodium album, pre-emergence, 125 g ai/ha, preemergence, scale 0 (no effect) to 100 (complete control), read-out: Lambsquarters plant response rating): 100%
- pest or weed control at 250 g/ha (lambsquarters; Chenopodium album, pre-emergence, 250 g ai/ha, preemergence, scale 0 (no effect) to 100 (complete control), read-out: Lambsquarters plant response rating): 100%
- pest or weed control at 31 g/ha (lambsquarters; Chenopodium album, pre-emergence, Preemergence, 31 g ai/ha, scale 0 to 100, 0 no effect, 100 complete control, read-out: Plant response rating, Lambsquarters): 100%
- pest or weed control at 31 g/ha (arrowleaf sida; Postemergence, scale 0 to 100): 60%
- pest or weed control at 62 g/ha (arrowleaf sida; Postemergence, scale 0 to 100): 70%
- pest or weed control at 125 g/ha (arrowleaf sida; Postemergence, scale 0 to 100): 70%
- pest or weed control at 16 g/ha (arrowleaf sida): 50%
- pest or weed control at 31 g/ha ([1]; Postemergence, scale 0 to 100): 90%
- pest or weed control at 62 g/ha ([1]; Postemergence, scale 0 to 100): 95%
- pest or weed control at 125 g/ha ([1]; Postemergence, scale 0 to 100): 90%
- pest or weed control at 16 g/ha [1]: 80%
- pest or weed control at 31 g/ha (waterhemp; Postemergence, scale 0 to 100): 70%
- pest or weed control at 62 g/ha (waterhemp; Postemergence, scale 0 to 100): 75%
- pest or weed control at 125 g/ha (waterhemp; Postemergence, scale 0 to 100): 95%
- pest or weed control at 16 g/ha (waterhemp): 65%

Compound: Cc1cnc(Oc2cccc(C#N)c2-n2cc(C#N)cn2)nc1 [Compound 90]
- Surinam Grass plant response rating (surinam grass; 16 g ai/ha): 0
- Surinam Grass plant response rating (surinam grass; 31 g ai/ha): 0
- Surinam Grass plant response rating (surinam grass; 62 g ai/ha): 0
- Plant response rating, Surinam Grass (surinam grass; [3]): 0
- Pigweed, Palmer plant response rating (palmer pigweed; 16 g ai/ha): 0
- Pigweed, Palmer plant response rating (palmer pigweed; 31 g ai/ha): 0
- Pigweed, Palmer plant response rating (palmer pigweed; 62 g ai/ha): 0
- Plant response rating, Pigweed, Palmer (palmer pigweed; [3]): 65
- Lambsquarters plant response rating (lambsquarters; [5]): 100
- Lambsquarters plant response rating (lambsquarters; [6]): 100
- Lambsquarters plant response rating (lambsquarters; [7]): 100
- Plant response rating, Lambsquarters (lambsquarters; Preemergence, 31 g ai/ha, scale 0 to 100, 0 no effect, 100 complete control): 98
- Plant response rating, Ryegrass, Italian (Italian ryegrass; 125 g ai/ha): 30
- Plant response rating, Ryegrass, Italian (Italian ryegrass; 500 g ai/ha): 80

Compound: Fc1cnc(Oc2cccc(C(F)F)c2-n2cc(C(F)(F)F)cn2)nc1 [Compound 164]
- Surinam Grass plant response rating (surinam grass; 31 g ai/ha): 0
- Surinam Grass plant response rating (surinam grass; 62 g ai/ha): 20
- Plant response rating, Surinam Grass (surinam grass; [3]): 20
- Pigweed, Palmer plant response rating (palmer pigweed; 31 g ai/ha): 0
- Pigweed, Palmer plant response rating (palmer pigweed; 62 g ai/ha): 75
- Plant response rating, Pigweed, Palmer (palmer pigweed; [3]): 80
- Lambsquarters plant response rating (lambsquarters; [5]): 70
- Lambsquarters plant response rating (lambsquarters; [6]): 100
- Lambsquarters plant response rating (lambsquarters; [7]): 98

Compound: FC(F)c1cccc(Oc2ncc(Cl)cn2)c1-n1cc(C(F)(F)F)cn1 [Compound 170]
- Plant response rating, Surinam Grass (surinam grass; [8]): 0
- Surinam Grass plant response rating (surinam grass; 31 g ai/ha): 0
- Surinam Grass plant response rating (surinam grass; 62 g ai/ha): 15
- Plant response rating, Surinam Grass (surinam grass; [3]): 25
- Plant response rating, Pigweed, Palmer (palmer pigweed; [8]): 0
- Pigweed, Palmer plant response rating (palmer pigweed; 31 g ai/ha): 95
- Pigweed, Palmer plant response rating (palmer pigweed; 62 g ai/ha): 100
- Plant response rating, Pigweed, Palmer (palmer pigweed; [3]): 100
- Lambsquarters plant response rating (lambsquarters; [5]): 90
- Lambsquarters plant response rating (lambsquarters; [6]): 100
- Lambsquarters plant response rating (lambsquarters; [7]): 100

Compound: Cc1cnc(Oc2cccc(C#N)c2-n2cc(C(F)(F)F)cn2)nc1 [Compound 180]
- Surinam Grass plant response rating (surinam grass; 31 g ai/ha): 10
- Surinam Grass plant response rating (surinam grass; 62 g ai/ha): 25
- Plant response rating, Surinam Grass (surinam grass; [3]): 75
- Plant response rating, Surinam Grass (surinam grass; [4]): 100
- Pigweed, Palmer plant response rating (palmer pigweed; 31 g ai/ha): 0
- Pigweed, Palmer plant response rating (palmer pigweed; 62 g ai/ha): 0
- Plant response rating, Pigweed, Palmer (palmer pigweed; [3]): 75
- Plant response rating, Pigweed, Palmer (palmer pigweed; [4]): 90
- Lambsquarters plant response rating (lambsquarters; [5]): 85
- Lambsquarters plant response rating (lambsquarters; [7]): 100
- Plant response rating, Lambsquarters (lambsquarters; [9]): 100

Compound: NC(=S)c1cccc(Oc2ncc(Cl)cn2)c1-n1cc(Cl)cn1 [Compound 292]
- Plant response rating, Surinam Grass (surinam grass; [8]): 0
- Surinam Grass plant response rating (surinam grass; 31 g ai/ha): 0
- Surinam Grass plant response rating (surinam grass; 62 g ai/ha): 10
- Plant response rating, Surinam Grass (surinam grass; [3]): 20
- Plant response rating, Pigweed, Palmer (palmer pigweed; [8]): 0
- Pigweed, Palmer plant response rating (palmer pigweed; 31 g ai/ha): 35
- Pigweed, Palmer plant response rating (palmer pigweed; 62 g ai/ha): 100
- Plant response rating, Pigweed, Palmer (palmer pigweed; [3]): 100
- Lambsquarters plant response rating (lambsquarters; [5]): 35
- Lambsquarters plant response rating (lambsquarters; 31 g ai/ha, preemergence, scale 0 to 100 (0 no effect, 100 complete control)): 80
- Lambsquarters plant response rating (lambsquarters; [7]): 100
- Plant response rating, Lambsquarters (lambsquarters; [9]): 98
